This note sets out measurements from patent US20040152710A1, “Use of norepinephrine reuptake modulators for preventing and treating vasomotor symptoms” (priority 2002, published 2004).

The subject of assay [1] is naloxone-induced flush in morphine-dependent ovariectomized rats. Kind of assay: Morphine-dependent rat model of hot flush (naloxone-induced flush, MD model). The following applies: for changes in TST over time, effect on naloxone-induced flush: various doses; for ED50 value, abatement of naloxone-induced flush: maximal flush 15 minutes post-naloxone; for effect on naloxone-induced flush at maximal flush: 30 mg/kg intraperitoneally.
Protocol: (§3) Dosing: All doses were prepared based on mg/kg.
(§4) Animals: Ovariectomized Sprague-Dawley rats (180-220 g) were obtained from a commercial vendor (Taconic, Germantown, N.Y.) and individually housed under 12 hours light/dark cycle in a room maintained at 25° C. Animals were provided with standard rat chow and water ad libitum.
Morphine-dependent model: Ovariectomized rats were injected once daily for 8-9 days with vehicle to minimize stress responses and then administered compound(s) on test day. On day 4 of dosing, morphine dependence was induced by sc implantation of two slow-release morphine pellets (75 mg/pellet) in the dorsal scapular region. […] Four to six days after implantation, morphine withdrawal was induced with an opioid antagonist (naloxone) that causes a transient increase in TST. […] Rats were mildly sedated with ketamine and a thermistor connected to a MacLab data acquisition system was taped to the base of the tail. Tail skin temperature was then monitored continuously for 35 minutes to establish a baseline temperature. Naloxone was subsequently administered and TST was measured for an additional 35 to 60 minutes (total recording time 70 to 95 minutes).
Statistical analysis: To analyze changes in TST induced by naloxone in morphine-dependent rats, all data were analyzed using a two factor repeated measure ANOVA for “treatment” and “time.” The model was fit to test whether there were significant differences in the responses between treatment groups. Naloxone administration is designated as time zero and data is then analyzed at 5 minute intervals. The first three readings were averaged and used as baseline TST scores. All data were analyzed as ΔTST (TST for each time point-baseline). Multiple comparisons (LSD p-values) among the treatment groups at each time point were used for the analysis. Efficacy of hot flush abatement was determined by evaluating statistical differences at the peak response time of 15 minutes post-nalbxone, when the maximal change in TST is observed. A customized SAS-excel (SAS Institute, Cary, N.C.) application was used applying a four parameter logistic model to determine ED50 values. A logistic dose transformation was performed on ΔTST. Maximum flush (ΔTST at 15 minutes post-naloxone) was used in the analysis and the minimum was locked at zero. […] Statisticians in the Biometrics Department (Wyeth Research, Collegeville, Pa.) developed a customized JMP application.

Assay [2] deals with T1, human hNET (Homo sapiens, UniProt P23975).
T1 construct: expressed in transfected cells
T1 sequence (P23975 whole entry): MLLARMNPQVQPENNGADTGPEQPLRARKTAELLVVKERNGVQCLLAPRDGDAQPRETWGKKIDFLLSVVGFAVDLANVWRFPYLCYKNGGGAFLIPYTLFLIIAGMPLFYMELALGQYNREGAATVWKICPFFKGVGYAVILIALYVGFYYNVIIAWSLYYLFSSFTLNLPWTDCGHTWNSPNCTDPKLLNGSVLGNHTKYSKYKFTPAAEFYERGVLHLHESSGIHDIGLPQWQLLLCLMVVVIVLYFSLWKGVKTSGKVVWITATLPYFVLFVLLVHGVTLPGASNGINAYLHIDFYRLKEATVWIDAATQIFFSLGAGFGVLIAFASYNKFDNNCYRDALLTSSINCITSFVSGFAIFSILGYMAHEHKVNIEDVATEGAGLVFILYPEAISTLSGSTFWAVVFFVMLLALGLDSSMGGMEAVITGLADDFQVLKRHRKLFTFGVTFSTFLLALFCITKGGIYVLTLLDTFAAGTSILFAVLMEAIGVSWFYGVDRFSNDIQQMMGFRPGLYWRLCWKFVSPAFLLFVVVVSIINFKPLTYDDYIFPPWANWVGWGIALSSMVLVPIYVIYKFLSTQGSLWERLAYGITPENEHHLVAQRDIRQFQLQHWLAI
Kind of assay: Norepinephrine (NE) uptake assay in MDCK-Net6 cells. Particulars: for hNET % Specific NE uptake: at 1 μM. Format: cell-based. The protocol:
(§1) Cells were plated at 300,000/T75 flask and cells were split twice weekly. […] Cells were plated at 250,000 cells/T75 flask and split twice weekly.
On day 1, cells were plated at 3,000 cells/well in growth medium and maintained in a cell incubator (37° C., 5% CO2). On day 2, growth medium was replaced with 200 μl of assay buffer (25 mM HEPES; 120 mM NaCl; 5 mM KCl; 2.5 mM CaCl2; 1.2 mM MgSO4; 2 mg/ml glucose (pH 7.4, 37° C.)) containing 0.2 mg/ml ascorbic acid and 10 μM pargyline. Plates containing cells with 200 μl of assay buffer were equilibrated for 10 minutes at 37° C. prior to addition of compounds. […] Data from these wells were used to define non-specific NE uptake (minimum NE uptake). Test compounds were prepared in DMSO (10 mM) and diluted in assay buffer according to test range (1 to 10,000 nM). Twenty-five microliters of assay buffer (maximum NE uptake) or test compound were added directly to triplicate wells containing cells in 200 μl of assay buffer. The cells in assay buffer with test compounds were incubated for 20 minutes at 37° C. […] The reaction was terminated by decanting the supernatant from the plate. The plates containing cells were washed twice with 200 μl assay buffer (37° C.) to remove free radioligand. The plates were then inverted, left to dry for 2 minutes, then reinverted and air dried for an additional 10 minutes. The cells were lysed in 25 μl of 0.25 N NaOH solution (4° C.), placed on a shake table and vigorously shaken for 5 minutes. After cell lysis, 75 μl of scintillation cocktail was added to each well and the plates were sealed with film tape. The plates were returned to the shake table and vigorously shaken for a minimum of 10 minutes to ensure adequate partitioning of organic and aqueous solutions. The plates were counted in a Wallac Microbeta counter (PerkinElmer) to collect the raw cpm data.
(§2) For each experiment, a data stream of cpm values collected from the Wallac Microbeta counter was downloaded to a Microsoft Excel statistical application program. Determination of percent specific NE uptake (% SB) at 1 μM are calculated using a Microsoft Excel spread sheet applying the following formula: [% SB of NE reuptake (% SB)=[(1−(mean cpm control wells−each cpm drug well)/(mean cpm control wells−mean cpm non-specific wells))×100]. Calculations of EC50 values were made using the transformed-both-sides logistic dose response program written by Wyeth Biometrics Department.

For assay [3], the target named is T2, hSERT (Homo sapiens, UniProt P31645).
T2 construct: cells were stimulated with staurosporine (40 nM) to increase the expression of the 5-HT transporter; host or cells: JAR (human placental choriocarcinoma)
T2 sequence (P31645 whole entry): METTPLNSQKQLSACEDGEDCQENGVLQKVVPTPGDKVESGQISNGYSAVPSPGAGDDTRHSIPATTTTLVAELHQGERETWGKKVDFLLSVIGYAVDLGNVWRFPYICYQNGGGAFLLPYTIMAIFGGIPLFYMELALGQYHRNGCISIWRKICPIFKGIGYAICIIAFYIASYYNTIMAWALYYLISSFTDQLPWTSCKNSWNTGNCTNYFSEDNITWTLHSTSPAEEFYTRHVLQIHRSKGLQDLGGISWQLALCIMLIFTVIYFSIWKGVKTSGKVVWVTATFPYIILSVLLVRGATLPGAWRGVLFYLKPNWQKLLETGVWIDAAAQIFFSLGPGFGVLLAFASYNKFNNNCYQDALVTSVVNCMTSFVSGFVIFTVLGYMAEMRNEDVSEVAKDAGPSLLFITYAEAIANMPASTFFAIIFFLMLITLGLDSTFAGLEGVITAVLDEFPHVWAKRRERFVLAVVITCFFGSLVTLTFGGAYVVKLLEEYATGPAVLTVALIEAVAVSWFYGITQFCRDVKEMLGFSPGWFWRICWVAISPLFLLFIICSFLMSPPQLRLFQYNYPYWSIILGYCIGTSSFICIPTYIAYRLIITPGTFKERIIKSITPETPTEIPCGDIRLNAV
Kind of assay: Serotonin (5-HT) uptake assay in JAR cells. Format: cell-based. The following applies: for hSERT % specific 5-HT uptake: at 1 μM. How it is done:
as §1
The methods for 5-HT functional reuptake using the JAR cell line were modified using a previous literature report. […] On day 2, cells were stimulated with staurosporine (40 nM) to increase the expression of the 5-HT transporter. On day 3, cells were removed from the cell incubator two hours prior to assay and maintained at room temperature to equilibrate the growth medium to ambient oxygen concentration. Subsequently, the growth medium was replaced with 200 μl of assay buffer (25 mM HEPES; 120 mM NaCl; 5 mM KCl; 2.5 mM CaCl2; 1.2 mM MgSO4; 2 mg/ml glucose (pH 7.4, 37° C.)) containing 0.2 mg/ml ascorbic acid and 10 μM pargyline. […] Data from these wells were used to define non-specific 5-HT uptake (minimum 5-HT uptake). Test compounds were prepared in DMSO (10 mM) and diluted in assay buffer according to test range (1 to 1,000 nM). Twenty-five microliters of assay buffer (maximum 5-HT uptake) or test compound were added directly to triplicate wells containing cells in 200 μl of assay buffer. The cells were incubated with the compound for 10 minutes (37° C.). […] The cells were incubated with the reaction mixture for 5 minutes at 37° C. The 5-HT uptake reaction was terminated by decanting the assay buffer. The cells were washed twice with 200 μl assay buffer (37° C.) to remove free radioligand. The plates were inverted and left to dry for 2 minutes, then reinverted and air-dried for an additional 10 minutes. Subsequently, the cells were lysed in 25 μl of 0.25 N NaOH (4° C.) then placed on a shaker table and shaken vigorously for 5 minutes. After cell lysis, 75 μl of scintillation cocktail was added to the wells, the plates were sealed with film tape and replaced on the shake table for a minimum of 10 minutes. The plates were counted in a Wallac Microbeta counter (PerkinElmer) to collect the raw cpm data.
as §2

Assay [4] has as its system tail skin temperature of ovariectomized rats. Kind of assay: OVX-induced thermoregulatory dysfunction telemetry model. Particulars: 60 mg/kg sc.
Protocol: as §3, §4
A temperature and physical activity transmitter (PhysioTel TA10TA-F40, Data Sciences International) was implanted subcutaneously in the dorsal scapular region and the tip of the temperature probe was tunneled subcutaneously 2.5 cm beyond the base of the tail. After a 7-day recovery period, TST readings were continuously recorded for the remainder of the study. Tail skin temperature readings were collected from each animal every 5 minutes with values obtained over a 10 second sampling period. The day before test day, an average baseline TST value was calculated for each animal by averaging temperature readings recorded during the 12 hours active (dark) phase. In these studies, animals were dosed approximately 1 hour prior to the onset of dark cycle.
Evaluation of a compound's ability to restore normal lowering of TST in the telemetry model was analyzed using hourly TST values calculated for each animal by averaging the 12 temperature readings obtained every 5 minutes over that recording time. To analyze ΔTST in the telemetry model, a two factors repeated measure ANOVA was performed. The model used for analysis was ΔTST=GRP (group)+HR (hours)+GRP*HR+BASELINE. Thus, the reported least squares means are the expected mean values as if both groups had the same baseline value. Post-hoc tests of hourly GRP*HR samples are t-tests of the difference between groups for each hour. To be conservative, a result was not considered significant unless the p-value was <0.025. All analyses were performed using SAS PROC MIXED (SAS, Carey, N.C.).
Setting [5] is: [3H]5-HT uptake, JAR cells, read-out: hSERT EC50.

Where two headings read alike, the source gives them in different places.

For the compound `CN1CCN(CC(c2cccc(Cl)c2)C2(O)CCCCC2)CC1` (racemic) [1-[1-(3-chlorophenyl)-2-(4-methyl-1-piperazinyl)ethyl]cyclohexanol], the “changes in TST over time, effect on naloxone-induced flush” value in assay [1] (sc) is on record as “dose-dependently abate the naloxone-induced flush”. For the same compound, the values for the EC50 in assay [2] and in assay [3] (setting [5]) were 55 nM and 15500 nM, respectively.

For `CN(C)C[C@@H](c1ccc(O)cc1)C1(O)CCCCC1` (single isomer, unassigned) [R-ODV, R-enantiomer of O-desmethylvenlafaxine], in assay [1] (sc, 1 hour prior to naloxone), the “ED50 value, abatement of naloxone-induced flush” value (shortened to “ED50 value, abatement”) is 14.4+13 mg/kg.

`COc1ccc([C@H](CN(C)C)C2(O)CCCCC2)cc1` (single isomer, unassigned) [R-venlafaxine, R-enantiomer of venlafaxine]: the “ED50 value, abatement” value in assay [1] (sc, 1 hour prior to naloxone) is on record as 8.3+3 mg/kg.

Consider `CN(C)C[C@H](c1ccc(O)cc1)C1(O)CCCCC1` (single isomer, unassigned) [S-ODV, S-enantiomer of ODV], for which the “ED50 value, abatement” value in assay [1] (sc, 1 hour prior to naloxone) is 13.3+8 mg/kg.

`COc1ccc([C@@H](CN(C)C)C2(O)CCCCC2)cc1` (single isomer, unassigned) [S-venlafaxine, S-enantiomer of venlafaxine]: the “ED50 value, abatement” value in assay [1] (sc, 1 hour prior to naloxone) is given as 10.9+3 mg/kg.

Turning to `OC1(C(CN2CCN(c3cccc(Cl)c3)CC2)c2cccc(Cl)c2)CCCCC1` (centres unmarked) [1-[1-(3-chlorophenyl)-2-[4-(3-chlorophenyl)-1-piperazinyl]ethyl]cyclohexanol], the “hNET % Specific NE uptake” value in assay [2] amounted to 23%. Besides, the “hSERT % specific 5-HT uptake” value in assay [3] is given as 72%.

In assay [2], `CN1CCN(CC(c2cccc(F)c2)C2(O)CCCCC2)CC1` (centres unmarked) [1-[1-(3-fluorophenyl)-2-(4-methyl-1-piperazinyl)ethyl]cyclohexanol] came in with an EC50 of 240 nM. Also, the “hSERT EC50” value in assay [3] ([3H]5-HT uptake, JAR cells) is listed as “Inactive at 1 μm”.

For the compound `COc1cccc(C(CN2CCN(c3cccc(C(F)(F)F)c3)CC2)C2(O)CCCCC2)c1` (centres unmarked) [1-[1-(3-methoxyphenyl)-2-[4-[3-(trifluoromethyl)-phenyl]-1-piperazinyl]ethyl]cyclohexanol], in assay [2], the “hNET % Specific NE uptake” value stood at 38%. In addition, the “hSERT % specific 5-HT uptake” value in assay [3] came to 87%.

In the case of `COc1cccc(C(CN2CCN(c3cccc(C(F)(F)F)c3)CC2)C2(O)CCCC2)c1` (centres unmarked) [1-[1-(3-methoxyphenyl)-2-[4-[3-(trifluoromethyl)-phenyl]-1-piperazinyl]ethyl]cyclopentanol], the “hNET % Specific NE uptake” value in assay [2] was 57%. Further, in assay [3], the “hSERT % specific 5-HT uptake” value turned out to be 82%.

Turning to `COc1cccc(C(CN2CCN(Cc3ccccc3)CC2)C2(O)CCCCC2)c1` (centres unmarked) [1-[1-(3-methoxyphenyl)-2-[4-phenylmethyl)-1-piperazinyl]ethyl]cyclohexanol], in assay [2], the “hNET % Specific NE uptake” value was 43%. The “hSERT % specific 5-HT uptake” value in assay [3] was 49%.

In the case of `OC1(C(CN2CCN(Cc3ccccc3)CC2)c2ccc(F)cc2)CCCCC1` (centres unmarked) [1-[1-(4-fluorophenyl)-2-[4-(phenylmethyl)-1-piperazinyl]ethyl]cyclohexanol], the “hNET % Specific NE uptake” value in assay [2] is on record as 53%. In addition, the “hSERT % specific 5-HT uptake” value in assay [3] turned out to be 88%.

Regarding `COc1ccc(C(CN2CCN(C)CC2)C2(O)CCCCC2)cc1` (centres unmarked) [1-[1-(4-methoxyphenyl)-2-[4-methyl-1-piperazinyl)ethyl]cyclohexanol], the “hNET % Specific NE uptake” value in assay [2] was 65%. The “hSERT % specific 5-HT uptake” value in assay [3] was 79%.

`COc1cccc(C(CN2CCN(c3cccc(Cl)c3)CC2)C2(O)CCCCC2)c1` (centres unmarked) [1-[2-(3-chlorophenyl)1-piperazinyl]-1-[3-methoxyphenyl)ethyl]cyclohexanol]: in assay [2], the “hNET % Specific NE uptake” value is given as 64%. Besides, the “hSERT % specific 5-HT uptake” value in assay [3] is reported as 67%.

With `CN1CCN(CC(c2cccc(C(F)(F)F)c2)C2(O)CCCCC2)CC1` (centres unmarked) [1-[2-(4-methyl-1-piperazinyl)-1-[3-(trifluoromethyl)-phenyl]ethyl]cyclohexanol], the EC50 in assay [2] came to 87 nM; in assay [3] (setting [5]), 33600 nM.

Take `COc1cccc(C(CN2CCN(c3cncc(Cl)n3)CC2)C2(O)CCCCC2)c1` (centres unmarked) [1-[2-[4-(6-chloro-2-pyrazinyl)-1-piperazinyl]-1-[3-methoxyphenyl)ethyl]cyclohexanol]: the “hNET % Specific NE uptake” value in assay [2] came to 59%. Further, the “hSERT % specific 5-HT uptake” value in assay [3] amounted to 58%.

As to `OC1(C(CN2CCN(Cc3ccccc3)CC2)c2cccc(C(F)(F)F)c2)CCCCC1` (centres unmarked) [1-[2-[4-(phenylmethyl)]-1-piperazinyl]-1-[3-(trifluoromethyl)phenyl]ethyl]cyclohexanol], the “hNET % Specific NE uptake” value in assay [2] is listed as 19%. Moreover, the “hSERT % specific 5-HT uptake” value in assay [3] is listed as 94%.

`CN(C)CC(c1ccc(O)cc1)C1(O)CCCCC1` (centres unmarked) [DVS-233, O-desmethyl-venlafaxine]: the “changes in TST over time” value in assay [4] is “significantly and transiently decreases TST during the active phase”.

`CN(C)CC(c1cccc(Cl)c1)C1(O)CCCCC1` (centres unmarked) [WY-781]: in assay [1] (1 hour prior to naloxone), the “effect on naloxone-induced flush at maximal flush” value was “abated the naloxone-induced flush”.

As for `CN(C)CC(c1cccc(C(F)(F)F)c1)C1(O)CCCCC1` (centres unmarked) [WY-867], the “effect on naloxone-induced flush at maximal flush” value in assay [1] (1 hour prior to naloxone) is reported as “abated the naloxone-induced flush”.

As for `CCC1(c2cnc[nH]2)Cc2ccccc2C1` [atipamezole], the “changes in TST after naloxone, alone” value in assay [1] (0.3 mg/kg sc, 55 minutes prior to naloxone) is reported as “not significantly different from vehicle treated rats”.

With `CNCCC(Oc1ccc(C(F)(F)F)cc1)c1ccccc1` (centres unmarked) [fluoxetine], the “effect on naloxone-induced flush, alone” value in assay [1] (fluoxetine 10 mg/kg sc) is on record as “did not abate the naloxone-induced flush”.

Turning to `CNCCC(Oc1ccccc1OC)c1ccccc1` (centres unmarked) [nisoxetine, reference compound], a half-maximal effect in assay [3] (EC50) was put at 275 nM.

In the case of `Fc1ccc([C@@H]2CCNC[C@H]2COc2ccc3c(c2)OCO3)cc1` [paroxetine], the ED50 in assay [1] (Rattus norvegicus, sc, read-out: ED50 value, abatement of naloxone-induced flush) was 22.3 mg/kg.

With `CCOc1ccccc1OC(c1ccccc1)C1CNCCO1` (centres unmarked) [reboxetine], in assay [1] (sc, 1 hour prior to naloxone, 15 minutes post-naloxone), the “effect on naloxone-induced flush at maximal flush (dose response)” value is “dose-dependently abates the naloxone-induced flush”. Also, the “changes in TST over time, effect on naloxone-induced flush” value in assay [1] (sc) is on record as “dose-dependently abate the naloxone-induced flush”.
